US10613104B2, “Assay to determine anticoagulants in blood or blood plasma” (ZAFENA AB, priority 2014, dated 2020)

System: prothrombin time (PT) of normal plasma NKP
Test: Three wet-chemistry Owren PT methods (Simple Simon PT; 20, 10, 5 μL sample in 200 μL reagent) on normal plasma NKP with added anticoagulant
Type: biochemical
Protocol: Experimental work was performed with the commercially available ambient room temperature coagulation instrument, Simple Simon P T Zafena A B, Linköping, Sweden, with functions described in EP 1 636 595 B2. One instrument or reader was used for each PT-method. Alternatively, the same instrument could be used for all PT-methods.
The three instruments were used together standing next to one another on a laboratory bench in thermal equilibrium with the ambient room temperature of the laboratory.
The ambient room temperature in the laboratory where the work was done varied between 21° C. and 26° C.
The PT-reagent was the one delivered together with lot N223M of the Simple Simon PT product, a reagent of Owren-type that thus contains effective amounts of thromboplastin, fibrinogen and FV (the thromboplastin of rabbit brain origin and the fibrinogen and the FV of bovine blood plasma origin). Other Owren type reagents could also be used.
The reagent was in portions of 200 μL to which sample, citrated blood or citrated blood plasma, was added and mixed. The addition was by an end-to-end plastic capillary mounted at one end of a tubular body with a displacement mechanism in the other end, this to allow convenient mixing of sample and reagent. Such Mixxocaps with 10 μL capillaries are supplied with the Simple Simon PT product. To perform the experiments described, some Mixxocaps were fitted with 20 μL capillaries, or 5 μL capillaries instead of the 10 μL capillaries with which they were supplied by the manufacturer.
The ratios between the volume of blood or blood plasma to the volume of liquid reagent used in the experiments were 1:11, 1:21 and 1:41. Other ratios lying within the range of 1:5 and 1:100 or within the range of 1:2 and 1:200 could be used.
Anticoagulated normal plasma was the NKP product GHI-163 lot 10188, MediRox AB, Nyköping, Sweden.
It was further relevant that all three PT-methods were calibrated, according to the invention, to show INR 1.000 for unadulterated NKP, and INR 1.357 for the NKP 1:2. All primary INR values, the results that appeared on the instrument screens (one instrument or reader was used for each PT-method), were therefore transformed to the corrected/calibrated INRc by the formula A*INRexp(B) where a and b were selected to given NKP and NKP 1:2 their desired values, 1.000 and 1.357, respectively. The INR-value of the NKP 1:2 was calculated by the formula of Lindahl et al for the INR of corresponding to PT-activity of 50% (half of the 100% that equates to INR 1.000). Above the INR calibrated columns (INRc) there is an upper number and a lower number, these are the above mentioned A and B, respectively.
As deemed relevant the upper number is selected to make NKP 1:2 to show INRc 1.357.
Clinical levels of interest range from 50 to 1000 μg/L in blood plasma.
In the selected calibration INR 1.000 and INR 1.357 were assigned to NKP and NKP 1:2, respectively, which was the same relevant calibration as selected in Examples 1 and 3 above.

[1] = apixaban 50 μg/L in NKP plasma, from PT (s)
[2] = apixaban 50 μg/L in NKP plasma, from instrument INR
[3] = apixaban 100 μg/L in NKP plasma
[4] = apixaban 100 μg/L in NKP plasma, from PT (s)
[5] = apixaban 100 μg/L in NKP plasma, from instrument INR
[6] = apixaban 200 μg/L in NKP plasma
[7] = apixaban 200 μg/L in NKP plasma, from PT (s)
[8] = apixaban 200 μg/L in NKP plasma, from instrument INR
[9] = apixaban 300 μg/L in NKP plasma
[10] = apixaban 300 μg/L in NKP plasma, from PT (s)
[11] = apixaban 300 μg/L in NKP plasma, from instrument INR
[12] = apixaban 400 μg/L in NKP plasma
[13] = apixaban 400 μg/L in NKP plasma, from PT (s)
[14] = apixaban 400 μg/L in NKP plasma, from instrument INR
[15] = apixaban 500 μg/L in NKP plasma
[16] = apixaban 500 μg/L in NKP plasma, from PT (s)
[17] = apixaban 500 μg/L in NKP plasma, from instrument INR
[18] = apixaban 600 μg/L in NKP plasma
[19] = apixaban 600 μg/L in NKP plasma, from PT (s)
[20] = apixaban 600 μg/L in NKP plasma, from instrument INR
[21] = apixaban 800 μg/L in NKP plasma
[22] = apixaban 800 μg/L in NKP plasma, from PT (s)
[23] = apixaban 800 μg/L in NKP plasma, from instrument INR
[24] = apixaban 1000 μg/L in NKP plasma
[25] = apixaban 1000 μg/L in NKP plasma, from PT (s)
[26] = apixaban 1000 μg/L in NKP plasma, from instrument INR

SMILES: COc1ccc(-n2nc(C(N)=O)c3c2C(=O)N(c2ccc(N4CCCCC4=O)cc2)CC3)cc1 [apixaban]
- INR 5 μL sample (apixaban 50 μg/L in NKP plasma): 1.12
- INR 10 μL sample (apixaban 50 μg/L in NKP plasma): 1.18
- INR 20 μL sample (apixaban 50 μg/L in NKP plasma): 1.28
- PT (s) 5 μL sample (apixaban 50 μg/L in NKP plasma): 47.7 s
- PT (s) 10 μL sample (apixaban 50 μg/L in NKP plasma): 39.1 s
- PT (s) 20 μL sample (apixaban 50 μg/L in NKP plasma): 35.5 s
- INRc 20 μL sample [1]: 1.23
- ΔINRc 10 μL − 5 μL [1]: 0.04
- ΔINRc 20 μL − 5 μL [1]: 0.19
- INRc 20 μL sample [2]: 1.30
- ΔINR 10 μL − 5 μL [2]: 0.07
- ΔINR 20 μL − 5 μL [2]: 0.24
- INR 5 μL sample [3]: 1.15
- INR 10 μL sample [3]: 1.27
- INR 20 μL sample [3]: 1.55
- PT (s) 5 μL sample [3]: 49.1 s
- PT (s) 10 μL sample [3]: 41.5 s
- PT (s) 20 μL sample [3]: 39.3 s
- INRc 20 μL sample [4]: 1.61
- ΔINRc 10 μL − 5 μL [4]: 0.12
- ΔINRc 20 μL − 5 μL [4]: 0.53
- INRc 10 μL sample [5]: 1.24
- INRc 20 μL sample [5]: 1.67
- ΔINR 10 μL − 5 μL [5]: 0.15
- ΔINR 20 μL − 5 μL [5]: 0.58
- INR 5 μL sample [6]: 1.29
- INR 10 μL sample [6]: 1.53
- INR 20 μL sample [6]: 2.12
- PT (s) 5 μL sample [6]: 54.4 s
- PT (s) 10 μL sample [6]: 47.9 s
- PT (s) 20 μL sample [6]: 46.7 s
- INRc 5 μL sample [7]: 1.20
- INRc 20 μL sample [7]: 2.53
- ΔINRc 10 μL − 5 μL [7]: 0.31
- INRc 5 μL sample [8]: 1.22
- INRc 10 μL sample [8]: 1.55
- INRc 20 μL sample [8]: 2.51
- ΔINR 10 μL − 5 μL [8]: 0.34
- ΔINR 20 μL − 5 μL [8]: 1.30
- INR 5 μL sample [9]: 1.44
- INR 10 μL sample [9]: 1.82
- INR 20 μL sample [9]: 2.82
- PT (s) 5 μL sample [9]: 60.6 s
- PT (s) 10 μL sample [9]: 54.6 s
- PT (s) 20 μL sample [9]: 54.8 s
- INRc 5 μL sample [10]: 1.35
- INRc 10 μL sample [10]: 1.88
- INRc 20 μL sample [10]: 3.85
- ΔINRc 10 μL − 5 μL [10]: 0.53
- ΔINRc 20 μL − 5 μL [10]: 2.50
- INRc 5 μL sample [11]: 1.35
- INRc 10 μL sample [11]: 1.91
- INRc 20 μL sample [11]: 3.66
- ΔINR 10 μL − 5 μL [11]: 0.56
- ΔINR 20 μL − 5 μL [11]: 2.30
- INR 5 μL sample [12]: 1.58
- INR 20 μL sample [12]: 3.68
- PT (s) 5 μL sample [12]: 66.3 s
- PT (s) 10 μL sample [12]: 62.3 s
- PT (s) 20 μL sample [12]: 63.5 s
- INRc 5 μL sample [13]: 1.48
- INRc 20 μL sample [13]: 5.66
- ΔINRc 10 μL − 5 μL [13]: 0.86
- ΔINRc 20 μL − 5 μL [13]: 4.18
- INRc 5 μL sample [14]: 1.48
- INRc 20 μL sample [14]: 5.18
- ΔINR 10 μL − 5 μL [14]: 0.87
- ΔINR 20 μL − 5 μL [14]: 3.70
- INR 5 μL sample [15]: 1.73
- INR 10 μL sample [15]: 2.37
- INR 20 μL sample [15]: 4.47
- PT (s) 5 μL sample [15]: 72.0 s
- PT (s) 10 μL sample [15]: 67.0 s
- PT (s) 20 μL sample [15]: 70.8 s
- INRc 5 μL sample [16]: 1.62
- INRc 10 μL sample [16]: 2.64
- INRc 20 μL sample [16]: 7.54
- ΔINRc 10 μL − 5 μL [16]: 1.02
- ΔINRc 20 μL − 5 μL [16]: 5.92
- INRc 5 μL sample [17]: 1.62
- INRc 10 μL sample [17]: 2.63
- INRc 20 μL sample [17]: 6.69
- ΔINR 10 μL − 5 μL [17]: 1.02
- ΔINR 20 μL − 5 μL [17]: 5.07
- INR 5 μL sample [18]: 1.90
- INR 10 μL sample [18]: 2.70
- INR 20 μL sample [18]: 5.56
- PT (s) 5 μL sample [18]: 78.8 s
- PT (s) 10 μL sample [18]: 73.9 s
- PT (s) 20 μL sample [18]: 79.9 s
- INRc 5 μL sample [19]: 1.78
- INRc 10 μL sample [19]: 3.10
- INRc 20 μL sample [19]: 10.35
- ΔINRc 10 μL − 5 μL [19]: 1.32
- ΔINRc 20 μL − 5 μL [19]: 8.57
- INRc 5 μL sample [20]: 1.77
- INRc 10 μL sample [20]: 3.08
- INRc 20 μL sample [20]: 8.91
- ΔINR 10 μL − 5 μL [20]: 1.31
- ΔINR 20 μL − 5 μL [20]: 7.14
- INR 5 μL sample [21]: 2.22
- INR 10 μL sample [21]: 3.35
- INR 20 μL sample [21]: 7.81
- PT (s) 5 μL sample [21]: 91.7 s
- PT (s) 10 μL sample [21]: 87.2 s
- PT (s) 20 μL sample [21]: 96.9 s
- INRc 5 μL sample [22]: 2.09
- INRc 20 μL sample [22]: 17.18
- ΔINRc 10 μL − 5 μL [22]: 1.99
- INRc 5 μL sample [23]: 2.06
- INRc 20 μL sample [23]: 13.91
- ΔINR 10 μL − 5 μL [23]: 1.94
- ΔINR 20 μL − 5 μL [23]: 11.85
- INR 5 μL sample [24]: 2.67
- INR 20 μL sample [24]: 10.70
- PT (s) 5 μL sample [24]: 111.2 s
- PT (s) 10 μL sample [24]: 109.3 s
- PT (s) 20 μL sample [24]: 117.4 s
- INRc 20 μL sample [25]: 28.43
- INRo [25]: 0.75
- ΔINRc 10 μL − 5 μL [25]: 3.37
- ΔINRc 20 μL − 5 μL [25]: 25.85
- INRc 20 μL sample [26]: 21.03
- INRo [26]: 0.78
- ΔINR 10 μL − 5 μL [26]: 3.12
- ΔINR 20 μL − 5 μL [26]: 18.56
- content at which the INRc-difference (20 μL minus 5 μL) reaches 0.5 (normal plasma NKP, linear part of the graph (FIG. 8, FIG. 2)): about 80 μg/L
